Some test systems named below: Bacillus cereus; Escherichia coli; Staphylococcus aureus; Acinetobacter baumannii; Escherichia coli UB1005; Pseudomonas aeruginosa; Bacillus subtilis.
Common to all, as to experiment: ≥ marks a high value that may be exact or a test limit, other limits are often not marked, values filed in µg/mL are converted to µM
Assay [1] concerns Candida albicans ATCC 10231.
Assay [2] relates to Pseudomonas aeruginosa ATCC 27853.
The subject of assay [3] is Staphylococcus aureus ATCC 29213.
Assay [4] deals with Acinetobacter baumannii ATCC 19606.
Assay [5] concerns Klebsiella pneumoniae ATCC 13883.
Assay [6] relates to Salmonella enterica subsp. enterica serovar Typhimurium ATCC 14028.
In assay [7] the test system is Staphylococcus aureus ATCC 25923.
In assay [8] the test system is Escherichia coli ATCC 25922.
The test system of assay [9] is Salmonella enterica subsp. enterica serovar Typhimurium C77-31.
Assay [10] has as its system Staphylococcus epidermidis ATCC 12228.
The test system of assay [11] is Enterococcus faecalis ATCC 29212.
The subject of assay [12] is Staphylococcus aureus ATCC 43300.
For assay [13], the system named is Candida albicans ATCC 2002.

≈ marks a conversion by molar mass, not a printed value. Bounds are passed on as bounds.

As to `CC(C)C[C@H](NC(=O)[C@H](CCCCN)NC(=O)[C@H](Cc1ccccc1)NC(=O)[C@@H](NC(=O)[C@@H](NC(=O)CNC(=O)[C@H](CC(C)C)NC(=O)[C@@H](N)Cc1ccccc1)C(C)C)C(C)C)C(=O)N[C@H](C(=O)N[C@@H](CO)C(=O)N[C@@H](CCCCN)C(=O)N[C@H](C(=O)N[C@@H](Cc1ccccc1)C(=O)N1CCC[C@H]1C(=O)N[C@@H](C)C(=O)N[C@H](C(=O)N[C@@H](Cc1ccccc1)C(=O)NCC(=O)N[C@@H](CCCCN)C(=O)N[C@H](C(=O)O)C(C)C)C(C)C)C(C)C)C(C)C` [FLGVVFKLVSKVFPAVFGKV], the values for the MIC against Bacillus cereus, against Escherichia coli and against Staphylococcus aureus were 7.33 µM (≈ 16 µg/mL), 117 µM (≈ 256 µg/mL) and 3.67 µM (≈ 8 µg/mL), respectively.
For the molecule `CC(C)C[C@H](NC(=O)[C@H](CCCCN)NC(=O)[C@@H]1CCCN1C(=O)[C@H](CC(C)C)NC(=O)[C@H](CC(C)C)NC(=O)CNC(=O)[C@H](CCCCN)NC(=O)[C@H](CC(C)C)NC(=O)[C@H](CCCCN)NC(=O)[C@@H]1CCCN1C(=O)[C@H](CC(C)C)NC(=O)[C@H](CC(C)C)NC(=O)[C@H](CC(C)C)NC(=O)[C@H](CCCCN)NC(=O)[C@H](CC(C)C)NC(=O)[C@H](CC(C)C)NC(=O)[C@H](CCCCN)NC(=O)[C@@H](N)Cc1ccc(O)cc1)C(N)=O` [YKLLKLLLPKLKGLLPKL], the MIC in assay [1] turned out to be 40 µM (≈ 83.6 µg/mL); in assay [2], 5.86 µM (≈ 12.2 µg/mL); in [3], 5.93 µM (≈ 12.4 µg/mL).
As for `CC[C@H](C)[C@H](NC(=O)[C@H](CC(=O)O)NC(=O)[C@H](CCCCN)NC(=O)[C@@H](NC(=O)[C@H](CC(C)C)NC(=O)[C@H](CO)NC(=O)[C@H](CCSC)NC(=O)[C@H](CC(C)C)NC(=O)CN)C(C)C)C(=O)N[C@@H](C)C(=O)N[C@@H](CCCCN)C(=O)N[C@@H](CC(C)C)C(=O)N[C@@H](C)C(=O)N[C@@H](C)C(=O)N[C@@H](CCCCN)C(=O)N[C@@H](CCC(N)=O)C(=O)NCC(=O)N[C@@H](C)C(=O)N[C@@H](CCCCN)C(=O)N[C@@H](CCC(N)=O)C(=O)O` [GLMSLVKDIAKLAAKQGAKQ], the MIC in the assay on Bacillus cereus was not below 124 µM; in the assay with Escherichia coli it was 124 µM (≈ 256 µg/mL).
The like results for `CC(C)C[C@H](NC(=O)CNC(=O)[C@H](Cc1ccccc1)NC(=O)[C@H](CC(C)C)NC(=O)[C@H](C)NC(=O)CN)C(=O)N[C@@H](C)C(=O)N[C@@H](CO)C(=O)N[C@@H](CCCCN)C(=O)N[C@H](C(=O)N[C@@H](Cc1ccccc1)C(=O)N1CCC[C@H]1C(=O)N[C@@H](C)C(=O)N[C@H](C(=O)N[C@@H](Cc1ccccc1)C(=O)NCC(=O)N[C@@H](C)C(=O)N[C@@H](Cc1ccccc1)C(=O)N[C@@H](CCCCN)C(=O)N[C@@H](CCCCN)C(=O)O)C(C)C)C(C)C` [GALFGLASKVFPAVFGAFKK] were, in that order, not below 125 µM and 125 µM (≈ 256 µg/mL).
For the molecule `CC(C)C[C@H](NC(=O)[C@H](CC(C)C)NC(=O)[C@H](CCCN=C(N)N)NC(=O)[C@H](CCCN=C(N)N)NC(=O)[C@H](C)NC(=O)[C@H](Cc1c[nH]c2ccccc12)NC(=O)CNC(=O)[C@H](CCCN=C(N)N)NC(=O)[C@@H](N)CCCN=C(N)N)C(=O)N[C@@H](CCCN=C(N)N)C(=O)N[C@@H](C)C(=O)N[C@@H](Cc1ccccc1)C(=O)N[C@@H](C)C(=O)N[C@@H](Cc1ccccc1)C(=O)NCC(=O)N[C@@H](CCCN=C(N)N)C(=O)N[C@@H](CCCN=C(N)N)C(N)=O` [RRGWARRLLRAFAFGRR], the MIC in assay [4] was 2.7 µM (≈ 5.79 µg/mL); in [5] it was 30 µM (≈ 64.3 µg/mL); in assay [6], 2.9 µM (≈ 6.22 µg/mL); in [7] it was more than 30 µM.
As to `CC[C@H](C)[C@H](NC(=O)[C@H](CC(C)C)NC(=O)CNC(=O)[C@@H](NC(=O)[C@@H](NC(=O)[C@H](C)NC(=O)[C@@H]1CCCN1C(=O)[C@@H](NC(=O)[C@@H](NC(=O)[C@H](CCCCN)NC(=O)[C@H](CO)NC(=O)[C@H](C)NC(=O)[C@H](CC(C)C)NC(=O)[C@H](CO)NC(=O)[C@H](Cc1ccccc1)NC(=O)[C@H](CC(C)C)NC(=O)[C@H](C)NC(=O)CN)C(C)C)C(C)C)C(C)C)[C@@H](C)CC)C(=O)N[C@@H](CCCCN)C(=O)N[C@@H](CCCCN)C(=O)O` [GALFSLASKVVPAVIGLIKK], the MIC is not below 127 µM against Bacillus cereus and more than 127 µM in the assay with Escherichia coli.
`CC[C@H](C)[C@H](NC(=O)[C@@H](NC(=O)[C@H](CS)NC(=O)[C@H](Cc1ccc(O)cc1)NC(=O)[C@@H](NC(=O)[C@H](C)NC(=O)[C@@H]1CCCN1C(=O)[C@H](Cc1ccccc1)NC(=O)[C@@H](NC(=O)[C@H](CCCCN)NC(=O)[C@H](CO)NC(=O)[C@H](C)NC(=O)[C@H](CC(C)C)NC(=O)[C@H](CCCCN)NC(=O)CNC(=O)[C@H](CC(C)C)NC(=O)[C@H](C)N)C(C)C)C(C)C)[C@@H](C)O)C(=O)N[C@@H](CO)C(=O)N[C@@H](CCCN=C(N)N)C(=O)N[C@@H](CCCCN)C(=O)O` [ALGKLASKVFPAVYCTISRK]: the MIC is not below 119 µM in the assay with Bacillus cereus and 59.5 µM (≈ 128 µg/mL) with Escherichia coli.
Take `CC(C)[C@H](NC(=O)[C@H](CCCN=C(N)N)NC(=O)[C@H](Cc1c[nH]c2ccccc12)NC(=O)[C@H](CCCN=C(N)N)NC(=O)[C@@H](NC(=O)[C@H](CCCN=C(N)N)NC(=O)[C@H](Cc1c[nH]c2ccccc12)NC(=O)[C@H](CCCN=C(N)N)NC(=O)[C@@H](NC(=O)[C@H](CCCN=C(N)N)NC(=O)[C@@H](N)Cc1c[nH]c2ccccc12)C(C)C)C(C)C)C(=O)N[C@@H](CCCN=C(N)N)C(N)=O` [WRVRWRVRWRVR]: the MIC in the assay with Acinetobacter baumannii was 2 µM (≈ 3.62 µg/mL); in [8] it was 4 µM (≈ 7.24 µg/mL); in the assay with Escherichia coli UB1005 it was 2 µM (≈ 3.62 µg/mL); against Escherichia coli, 2 µM (≈ 3.62 µg/mL); with Pseudomonas aeruginosa, 4 µM (≈ 7.24 µg/mL); in assay [9], 4 µM (≈ 7.24 µg/mL). Moreover, the minimum inhibitory concentration (MIC) was determined as 2 µM (≈ 3.62 µg/mL) in assay [7], 1 µM (≈ 1.81 µg/mL) in [3], 1 µM (≈ 1.81 µg/mL) in the assay on Staphylococcus aureus and 2 µM (≈ 3.62 µg/mL) in assay [10].
As for `CC[C@H](C)[C@H](NC(=O)[C@H](C)NC(=O)[C@H](CO)NC(=O)[C@H](Cc1ccccc1)NC(=O)[C@@H](NC(=O)[C@H](CO)NC(=O)[C@@H]1CCCN1C(=O)[C@@H](NC(=O)[C@@H](NC(=O)[C@H](CCCCN)NC(=O)[C@H](CO)NC(=O)[C@H](C)NC(=O)[C@@H](NC(=O)CNC(=O)[C@H](Cc1ccccc1)NC(=O)[C@@H](NC(=O)[C@H](C)NC(=O)CN)C(C)C)C(C)C)C(C)C)C(C)C)C(C)C)C(=O)N[C@@H](CCCCN)C(=O)N[C@@H](CCCCN)C(=O)O` [GAVFGVASKVVPSVFSAIKK], the minimal inhibitory concentration (MIC) is not below 129 µM against Bacillus cereus and more than 129 µM against Escherichia coli.
As to `CC(C)[C@H](NC(=O)CN)C(=O)N[C@@H](CO)C(=O)NCC(=O)N[C@@H](Cc1cnc[nH]1)C(=O)NCC(=O)N[C@@H](CCC(N)=O)C(=O)N[C@@H](Cc1cnc[nH]1)C(=O)NCC(=O)N[C@H](C(=O)N[C@@H](Cc1cnc[nH]1)C(=O)NCC(=O)O)C(C)C` [GVSGHGQHGVHG], the minimal inhibitory concentration (MIC) in assay [1], in assay [11], in assay [8], in [2] and in assay [12] was more than 113 µM each time.
On to `CC(C)C[C@H](NC(=O)[C@H](CCCCN)NC(=O)[C@H](CCC(=O)O)NC(=O)[C@H](CC(C)C)NC(=O)[C@H](CC(C)C)NC(=O)[C@H](C)NC(=O)[C@H](CCCCN)NC(=O)[C@H](CC(C)C)NC(=O)[C@H](CCCCN)NC(=O)[C@H](CC(C)C)NC(=O)[C@H](CC(C)C)NC(=O)[C@H](CC(C)C)NC(=O)[C@H](Cc1c[nH]c2ccccc12)NC(=O)[C@H](CCCCN)NC(=O)[C@H](CC(C)C)NC(=O)[C@H](CC(C)C)NC(=O)[C@H](CCCCN)NC(=O)[C@@H](N)Cc1ccc(O)cc1)C(N)=O` [YKLLKWLLLKLKALLEKL], for which the MIC in assay [1] is more than 76.3 µM; in assay [2], 28.6 µM (≈ 63.6 µg/mL); in [3], 38.1 µM (≈ 84.8 µg/mL).
For `CC[C@H](C)[C@H](NC(=O)[C@H](C)NC(=O)[C@H](CCCN=C(N)N)NC(=O)[C@H](Cc1ccc(O)cc1)NC(=O)[C@H](CC(C)C)NC(=O)[C@H](CC(N)=O)NC(=O)[C@H](Cc1ccc(O)cc1)NC(=O)CNC(=O)[C@H](C)NC(=O)[C@@H](NC(=O)[C@@H](NC(=O)[C@@H](NC(=O)[C@H](CCCN=C(N)N)NC(=O)[C@@H](NC(=O)[C@@H](NC(=O)[C@@H](NC(=O)[C@@H]1CCCN1C(=O)[C@H](Cc1c[nH]c2ccccc12)NC(=O)[C@@H](N)Cc1ccccc1)C(C)C)C(C)C)[C@@H](C)CC)[C@@H](C)O)C(C)C)C(C)C)C(=O)N[C@@H](CCCCN)C(=O)N[C@@H](CCCCN)C(=O)N[C@@H](CCCCN)C(=O)O` [FWPVVIRTVVAGYNLYRAIKKK], the minimum inhibitory concentration (MIC) was 1.34 µM (≈ 3.52 µg/mL) in the assay with Bacillus subtilis, 0.335 µM (≈ 0.879 µg/mL) in assay [13], 10.7 µM (≈ 28.1 µg/mL) in [8] and 0.447 µM (≈ 1.17 µg/mL) in [7].

The values above are taken from DBAASP.
